The test deals with P388 leukemia ip, CD2F1 mice, survival T/C. Nature of the test: NCI In Vivo Anticancer Drug Screen. Data for tumor model P388 Leukemia (intraperitoneal) in CD2F1 (CDF1) mice. Particulars: endpoint: median survival time, higher = longer survival. In short, it runs like this:
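Mice carrying the transplanted tumor received test compound or vehicle. Survival was recorded in each group, and the value is the treated-group measurement divided by that of the vehicle-treated control group.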

[1] abbreviates: dose: 12.5 mg/kg/injection, schedule: Q01DX005 (ip), vehicle: Klucel (hydroxypropylcellulose) (HPC).
Where [2] appears, read: dose: 12.5 mg/kg/injection, schedule: Q01DX009 (ip), vehicle: distilled water + Tween-80.
The mark [3] stands for this setting: dose: 100.0 mg/kg/injection, schedule: Q01DX009 (ip), vehicle: saline.
[4] abbreviates: dose: 100.0 mg/kg/injection, schedule: Q01DX009 (ip), vehicle: saline with Tween-80.
Where [5] appears, read: dose: 50.0 mg/kg/injection, schedule: Q01DX009 (ip), vehicle: Klucel (hydroxypropylcellulose) (HPC).
Setting [6] is: dose: 100.0 mg/kg/injection, schedule: Q01DX009 (ip), vehicle: Klucel (hydroxypropylcellulose) (HPC).
[7] abbreviates: dose: 200.0 mg/kg/injection, schedule: Q01DX009 (ip), vehicle: Klucel (hydroxypropylcellulose) (HPC).
The mark [8] stands for this setting: dose: 50.0 mg/kg/injection, schedule: Q01DX009 (ip), vehicle: saline.
Setting [9] is: dose: 12.5 mg/kg/injection, schedule: Q01DX009 (ip), vehicle: saline.

Structures are written as SMILES. Several values for one entry are separate records, joined by “and”; a condition that tells them apart may be missing. Identical values can stand only once. Inconclusive results and toxic doses are left out.

On to `CC1OS(=O)(=O)C=C1Br` (stereo unspecified), for which the T/C is, setting by setting: (dose: 100.0 mg/kg/injection, schedule: Q04DX003 (ip), vehicle: saline with Tween-80) 108 % of control; (dose: 200.0 mg/kg/injection, schedule: Q04DX003 (ip), vehicle: saline with Tween-80) 97 % of control; (dose: 400.0 mg/kg/injection, schedule: Q04DX003 (ip), vehicle: saline with Tween-80) 89 % of control.
For the compound `COc1ccc(C)c2c(NCCCCCCCCNc3c4ccccc4nc4c(OC)ccc(C)c34)c3ccccc3nc12`, the T/C was 100 % of control (dose: 2.5 mg/kg/injection, schedule: Q01DX009 (ip), vehicle: water); 113 % of control (dose: 5.0 mg/kg/injection, schedule: Q01DX009 (ip), vehicle: water); 105 % of control (dose: 10.0 mg/kg/injection, schedule: Q01DX009 (ip), vehicle: water).
On to `Nc1nc(N)c(NS(=O)(=O)c2ccccc2)c(=O)[nH]1`, for which the T/C is 108 % of control (dose: 60.0 mg/kg/injection, schedule: Q01DX005 (ip), vehicle: saline with Tween-80); 100 % of control (dose: 120.0 mg/kg/injection, schedule: Q01DX005 (ip), vehicle: saline with Tween-80); 105 % of control (dose: 240.0 mg/kg/injection, schedule: Q01DX005 (ip), vehicle: saline with Tween-80).
Turning to `COc1cc(OC)c(NC(=O)C(Sc2nc(C)cc(C)c2C#N)c2ccccc2)cc1Cl` (stereo unspecified), the T/C runs as follows: under setting [1], 89 % of control; (dose: 25.0 mg/kg/injection, schedule: Q01DX005 (ip), vehicle: Klucel (hydroxypropylcellulose) (HPC)) 92 % of control and 93 % of control; (dose: 50.0 mg/kg/injection, schedule: Q01DX005 (ip), vehicle: Klucel (hydroxypropylcellulose) (HPC)) 100 % of control and 93 % of control; (dose: 100.0 mg/kg/injection, schedule: Q01DX005 (ip), vehicle: Klucel (hydroxypropylcellulose) (HPC)) 98 % of control; (dose: 200.0 mg/kg/injection, schedule: Q01DX005 (ip), vehicle: Klucel (hydroxypropylcellulose) (HPC)) 87 % of control.
For the compound `O=C1NC(=O)C2=C1CCCC2Br` (stereo unspecified), the T/C was 99 % of control (dose: 3.13 mg/kg/injection, schedule: Q01DX009 (ip), vehicle: distilled water + Tween-80); 92 % of control (dose: 6.25 mg/kg/injection, schedule: Q01DX009 (ip), vehicle: distilled water + Tween-80); 117 % of control under setting [2].
Turning to `OC(c1ccccc1)C(O)C(c1ccccc1)N1CCCCC1` (stereo unspecified), the T/C under setting [3] is 92 % of control and the T/C (dose: 200.0 mg/kg/injection, schedule: Q01DX009 (ip), vehicle: saline) is 92 % of control.
Take `CC(=O)N(C)N(Cc1ccc([N+](=O)[O-])cc1)C(C)=O`: the T/C is, setting by setting: (dose: 25.0 mg/kg/injection, schedule: Q01DX009 (ip), vehicle: other) 95 % of control; (dose: 50.0 mg/kg/injection, schedule: Q01DX009 (ip), vehicle: other) 102 % of control; (dose: 100.0 mg/kg/injection, schedule: Q01DX009 (ip), vehicle: other) 93 % of control; (dose: 200.0 mg/kg/injection, schedule: Q01DX009 (ip), vehicle: other) 93 % of control; (dose: 400.0 mg/kg/injection, schedule: Q01DX009 (ip), vehicle: other) 89 % of control.
On to `N#Cc1ccc(NC(=O)Nc2nccs2)cc1`, for which the T/C under setting [2] was 108 % of control and the T/C (dose: 25.0 mg/kg/injection, schedule: Q01DX009 (ip), vehicle: distilled water + Tween-80) is 117 % of control.
Consider `CCn1c(Cl)c(/C=N\Nc2ccccc2[N+](=O)[O-])c2ccccc21`, for which the T/C (dose: 12.5 mg/kg/injection, schedule: Q01DX001 (ip), vehicle: Klucel (hydroxypropylcellulose) (HPC)) is 94 % of control and the T/C (dose: 25.0 mg/kg/injection, schedule: Q01DX001 (ip), vehicle: Klucel (hydroxypropylcellulose) (HPC)) is 88 % of control.
As for `CC(NCNc1ccc2ccccc2c1)C(=O)O` (stereo unspecified), the T/C is 104 % of control (dose: 50.0 mg/kg/injection, schedule: Q01DX009 (ip), vehicle: saline with Tween-80); 106 % of control under setting [4]; 98 % of control (dose: 200.0 mg/kg/injection, schedule: Q01DX009 (ip), vehicle: saline with Tween-80).
On to `O=C(O)c1cc(-c2ccc(Cl)c(Cl)c2)nc2cc3ccccc3cc12`, for which the T/C is, setting by setting: under setting [5], 110 % of control; under setting [6], 106 % of control; under setting [7], 95 % of control.
`Cc1ccc(N2C(=O)CSC2=S)cc1C`: the T/C reads like this: (dose: 50.0 mg/kg/injection, schedule: Q01DX009 (ip), vehicle: suspension in saline) 90 % of control; (dose: 100.0 mg/kg/injection, schedule: Q01DX009 (ip), vehicle: suspension in saline) 90 % of control; (dose: 200.0 mg/kg/injection, schedule: Q01DX009 (ip), vehicle: suspension in saline) 103 % of control.
For the compound `NC(Cc1ccc(N(CCCl)CCCl)cc1)C(=O)O` (stereo unspecified), the T/C is 285 % of control and 309 % of control (dose: 3.12 mg/kg/injection, schedule: Q01DX009 (ip), vehicle: Klucel (hydroxypropylcellulose) (HPC)); 99 % of control and 105 % of control and 117 % of control (dose: 6.25 mg/kg/injection, schedule: Q01DX009 (ip), vehicle: Klucel (hydroxypropylcellulose) (HPC)).
For `C=CCCC/C=C/CN1CCOCC1`, the T/C is 103 % of control under setting [8] and 105 % of control under setting [3].
Regarding `CC(C)NC(C#N)C(C)C` (stereo unspecified), the T/C reads like this: (dose: 3.12 mg/kg/injection, schedule: Q01DX005 (ip), vehicle: Klucel (hydroxypropylcellulose) (HPC)) 99 % of control; (dose: 6.25 mg/kg/injection, schedule: Q01DX005 (ip), vehicle: Klucel (hydroxypropylcellulose) (HPC)) 108 % of control; under setting [1], 102 % of control.
Regarding `C[CH2][Sn]([CH2]C)([CH2]C(=O)OC)[CH2]C(=O)OC`, the T/C (dose: 9.0 mg/kg/injection, schedule: Q03HX015 (ip), vehicle: saline with Tween-80) was 153 % of control; the T/C (dose: 12.5 mg/kg/injection, schedule: Q01DX009 (ip), vehicle: saline with Tween-80) was 170 % of control; the T/C (dose: 18.0 mg/kg/injection, schedule: Q01DX005 (ip), vehicle: saline with Tween-80) was 150 % of control; the T/C under setting [4] was 174 % of control.
Regarding `Cc1nn(C(=O)c2ccncc2)c(C)c1N=Nc1ccc(Br)cc1`, the T/C runs as follows: under setting [5], 109 % of control; under setting [6], 110 % of control; under setting [7], 105 % of control.
Regarding `CCOc1c(N=Nc2ccc([N+](=O)[O-])cc2)c(C)nn1C(=S)SC`, the T/C was 108 % of control (dose: 1.87 mg/kg/injection, schedule: Q01DX005 (ip), vehicle: Klucel (hydroxypropylcellulose) (HPC)); 105 % of control (dose: 3.75 mg/kg/injection, schedule: Q01DX005 (ip), vehicle: Klucel (hydroxypropylcellulose) (HPC)); 105 % of control and 89 % of control (dose: 7.5 mg/kg/injection, schedule: Q01DX005 (ip), vehicle: Klucel (hydroxypropylcellulose) (HPC)); 97 % of control (dose: 15.0 mg/kg/injection, schedule: Q01DX005 (ip), vehicle: Klucel (hydroxypropylcellulose) (HPC)); 90 % of control (dose: 60.0 mg/kg/injection, schedule: Q01DX005 (ip), vehicle: Klucel (hydroxypropylcellulose) (HPC)); 87 % of control (dose: 240.0 mg/kg/injection, schedule: Q01DX005 (ip), vehicle: Klucel (hydroxypropylcellulose) (HPC)).
On to `Cc1ccc(S(=O)(=O)Sc2nnnn2-c2ccccc2)cc1`, for which the T/C was 97 % of control under setting [5], 103 % of control under setting [6] and 97 % of control under setting [7].
Regarding `c1ccc(Nc2ccncc2)cc1`, the T/C was 95 % of control (dose: 1.56 mg/kg/injection, schedule: Q01DX009 (ip), vehicle: saline); 95 % of control (dose: 3.12 mg/kg/injection, schedule: Q01DX009 (ip), vehicle: saline); 100 % of control (dose: 6.25 mg/kg/injection, schedule: Q01DX009 (ip), vehicle: saline); 100 % of control under setting [9]; 100 % of control (dose: 25.0 mg/kg/injection, schedule: Q04DX003 (ip), vehicle: saline sonified); 90 % of control (dose: 50.0 mg/kg/injection, schedule: Q04DX003 (ip), vehicle: saline sonified). Moreover, where the note is “dose: 100.0 mg/kg/injection, schedule: Q04DX003 (ip), vehicle: saline sonified”, the T/C was 100 % of control.
`C[n+]1ccc(/C=C/c2ccccc2O)cc1`: the T/C is 89 % of control under setting [9]; 94 % of control (dose: 25.0 mg/kg/injection, schedule: Q01DX009 (ip), vehicle: saline); 106 % of control under setting [8]; 117 % of control under setting [3].

Source of the values: PubChem BioAssay AID330 (DTP/NCI, 2004).
